For 23 compounds, IC50 results are on record in patent US11332459B2 (TEIJIN PHARMA LIMITED, priority 2017, dated 2022).

For this test, the target named is T1, human TRPC6 (Homo sapiens, UniProt Q9Y210).
T1 construct: expressed in transfected cells
T1 sequence (Q9Y210 1-931): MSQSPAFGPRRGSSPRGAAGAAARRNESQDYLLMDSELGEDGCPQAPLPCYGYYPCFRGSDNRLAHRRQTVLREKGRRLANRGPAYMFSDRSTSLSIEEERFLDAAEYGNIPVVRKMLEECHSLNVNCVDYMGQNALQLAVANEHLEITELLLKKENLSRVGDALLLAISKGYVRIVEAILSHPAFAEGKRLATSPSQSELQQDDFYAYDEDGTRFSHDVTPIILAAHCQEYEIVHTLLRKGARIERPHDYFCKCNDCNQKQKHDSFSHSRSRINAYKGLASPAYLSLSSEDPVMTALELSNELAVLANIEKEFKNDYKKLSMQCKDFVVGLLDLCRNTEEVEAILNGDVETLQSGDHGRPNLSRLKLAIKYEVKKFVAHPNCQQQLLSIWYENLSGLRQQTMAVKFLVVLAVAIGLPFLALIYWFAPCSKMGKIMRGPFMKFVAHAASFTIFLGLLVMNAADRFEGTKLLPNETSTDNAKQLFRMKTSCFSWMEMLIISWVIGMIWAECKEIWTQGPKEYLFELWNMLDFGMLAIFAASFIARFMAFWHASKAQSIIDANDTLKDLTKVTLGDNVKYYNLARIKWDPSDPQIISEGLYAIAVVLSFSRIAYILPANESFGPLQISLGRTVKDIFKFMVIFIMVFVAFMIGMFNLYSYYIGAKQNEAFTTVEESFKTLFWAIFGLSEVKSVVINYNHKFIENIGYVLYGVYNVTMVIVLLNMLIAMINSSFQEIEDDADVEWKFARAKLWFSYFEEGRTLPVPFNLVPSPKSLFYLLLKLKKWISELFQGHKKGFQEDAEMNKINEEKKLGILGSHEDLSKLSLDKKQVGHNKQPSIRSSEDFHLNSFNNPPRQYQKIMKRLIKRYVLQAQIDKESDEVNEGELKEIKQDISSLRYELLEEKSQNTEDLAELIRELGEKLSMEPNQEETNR
Put plainly: TRPC6 calcium flux assay (FLIPR, OAG-stimulated calcium influx). It is filed as cell-based. The settings on record: HEK293 cells stably transfected with human TRPC6, read-out: hTRPC6 Potency. An outline of the steps: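 HEK293 cells stably expressing human TRPC6, loaded with calcium dye 90–120 min at RT, then given compound for 25 min before OAG (50 uM final, 0.5% DMSO) in HEPES buffer pH 7.2 with 2 mM CaCl2. Background-subtracted FLIPR peak over 180 s normalized to OAG vs buffer; IC50 from dose plot.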
For orientation: Calcium assays in cells follow changes in intracellular calcium, usually with a dye or a luminescent sensor.

As to `C[C@@H](c1ccc(F)cc1F)n1c(N2CC[C@@H](F)[C@H](N)C2)nc2cc(F)c(F)cc21` [Example 331, (3R,4R)-1-(1-((1S)-1-(2,4-difluorophenyl)ethyl)-5,6-difluoro-1H-benzimidazol-2-yl)-4-fluoro-3-piperidinamine], the IC50 amounted to 204 nM.

On to `C[C@H](c1ccc(Cl)c(Cl)c1)n1c(N2CC[C@@H](F)[C@H](N)C2)nc2cc(F)c(F)cc21` [Example 332, (3R,4R)-1-(1-((1R)-1-(3,4-dichlorophenyl)ethyl)-5,6-difluoro-1H-benzimidazol-2-yl)-4-fluoro-3-piperidinamine], for which the IC50 came to 3200 nM.

As for `C[C@@H](c1ccc(Cl)c(Cl)c1)n1c(N2CC[C@@H](F)[C@H](N)C2)nc2cc(F)c(F)cc21` [Example 333, (3R,4R)-1-(1-((1S)-1-(3,4-dichlorophenyl)ethyl)-5,6-difluoro-1H-benzimidazol-2-yl)-4-fluoro-3-piperidinamine], the IC50 came to 3250 nM. In the case of `C[C@H](c1cc(F)ccc1F)n1c(N2CC[C@@H](F)[C@H](N)C2)nc2cc(F)c(F)cc21` [Example 334, (3R,4R)-1-(1-((1R)-(2,5-difluorophenyl)ethyl)-5,6-difluoro-1H-benzimidazol-2-yl)-4-fluoro-3-piperidinamine] it was 3540 nM; in that of `C[C@@H](c1cc(F)ccc1F)n1c(N2CC[C@@H](F)[C@H](N)C2)nc2cc(F)c(F)cc21` [Example 335, (3R,4R)-1-(1-((1S)-1-(2,5-difluorophenyl)ethyl)-5,6-difluoro-1H-benzimidazol-2-yl)-4-fluoro-3-piperidinamine], more than 3750 nM. In the case of `C[C@H](c1ccc(C(F)(F)F)cc1)n1c(N2CC[C@@H](F)[C@H](N)C2)nc2cc(F)c(F)cc21` [Example 336, (3R,4R)-1-(5,6-difluoro-1-((1R)-1-(4-(trifluoromethyl)phenyl)ethyl)-1H-benzimidazol-2-yl)-4-fluoro-3-piperidinamine] it was more than 3750 nM. As for `C[C@H](c1ccc(OC(F)(F)F)cc1)n1c(N2CC[C@@H](F)[C@H](N)C2)nc2cc(F)c(F)cc21` [Example 337, (3R,4R)-1-(5,6-difluoro-1-((1R)-1-(4-(trifluoromethoxy)phenyl)ethyl)-1H-benzimidazol-2-yl)-4-fluoro-3-piperidinamine], the IC50 is more than 3750 nM. Regarding `N[C@@H]1CN(c2nc3cc(F)c(F)cc3n2Cc2cc(Cl)ccc2OC(F)(F)F)CC[C@H]1F` [Example 338, (3R,4R)-1-(1-(5-chloro-2-2-(trifluoromethoxy)benzyl)-5,6-difluoro-1H-benzimidazol-2-yl)-4-fluoro-3-piperidinamine], the IC50 is more than 3750 nM. In the case of `N[C@@H]1CN(c2nc3cc(F)c(F)cc3n2Cc2ccc(-n3cncn3)cc2)CC[C@H]1F` [Example 339, (3R,4R)-1-(5,6-difluoro-1-(4-(1H-1,2,4-triazol-1-yl)benzyl)-1H-benzimidazol-2-yl)-4-fluoro-3-piperidinamine] it was 3.23 nM; in that of `N#Cc1cc(Cl)ccc1Cn1c(N2CC[C@@H](F)[C@H](N)C2)nc2cc(F)c(F)cc21` [Example 340, 2-((2-((3R,4R)-3-amino-4-fluoro-1-piperidinyl)-5,6-difluoro-1H-benzimidazol-1-yl)methyl)-5-chlorobenzonitrile], 0.704 nM; in that of `N[C@@H]1CN(c2nc3cc(F)c(F)cc3n2Cc2ccc(Cl)cc2Cl)CC[C@H]1F` [Example 341, (3R,4R)-1-(1-(2,4-dichlorobenzyl)-5,6-difluoro-1H-benzimidazol-2-yl)-4-fluoro-3-piperidinamine], 25.8 nM. In the case of `N#Cc1ccc(Cn2c(N3CC[C@@H](F)[C@H](N)C3)nc3cc(F)c(F)cc32)c(OC(F)F)c1` [Example 342, 4-((2-((3R,4R)-3-amino-4-fluoro-1-piperidinyl)-5,6-difluoro-1H-benzimidazol-1-yl)methyl)-3-(difluoromethoxy)benzo-nitrile] it was 12.1 nM. Turning to `N[C@@H]1CN(c2nc3cc(F)c(F)cc3n2Cc2cc(Cl)ccc2Cl)CC[C@H]1F` [Example 343, (3R,4R)-1-(1-(2,5-dichlorobenzyl)-5,6-difluoro-1H-benzimidazol-2-yl)-4-fluoro-3-piperidinamine], the IC50 stood at 804 nM. In the case of `CC(F)(F)c1ccc(Cn2c(N3CC[C@@H](F)[C@H](N)C3)nc3cc(F)c(F)cc32)cc1` [Example 344, (3R,4R)-1-(1-(4-(1,1-difluoroethyl)benzyl)-5,6-difluoro-1H-benzimidazol-2-yl)-4-fluoro-3-piperidinamine] it was 85.3 nM; in that of `N#Cc1ccc(Cn2c(N3CC[C@@H](F)[C@H](N)C3)nc3cc(F)c(F)cc32)cc1Cl` [Example 346, 4-((2-((3R,4R)-3-amino-4-fluoro-1-piperidinyl)-5,6-difluoro-1H-benzimidazol-1-yl)methyl)-2-chlorobenzonitrile], 1.39 nM; in that of `N#Cc1ccc(Cl)cc1Cn1c(N2CC[C@@H](F)[C@H](N)C2)nc2cc(F)c(F)cc21` [Example 347, 2-((2-((3R,4R)-3-amino-4-fluoro-1-piperidinyl)-5,6-difluoro-1H-benzimidazol-1-yl)methyl)-4-chlorobenzonitrile], 1.07 nM.

In the case of `N[C@@H]1CN(c2nc3cc(F)c(F)cc3n2Cc2ccccc2OC(F)F)CC[C@H]1F` [Example 348, (3R,4R)-1-(1-(2-(difluoromethoxy)benzyl)-5,6-difluoro-1H-benzimidazol-2-yl)-4-fluoro-3-piperidinamine], the IC50 was 493 nM. In the case of `N[C@@H]1CN(c2nc3cc(F)c(F)cc3n2Cc2ccc(F)c(Cl)c2)CC[C@H]1F` [Example 349, (3R,4R)-1-(1-(3-chloro-4-fluorobenzyl)-5,6-difluoro-1H-benzimidazol-2-yl)-4-fluoro-3-piperidinamine] it was 215 nM; in that of `COc1cc(Cl)ccc1Cn1c(N2CC[C@@H](F)[C@H](N)C2)nc2cc(F)c(F)cc21` [Example 350, (3R,4R)-1-(1-(4-chloro-2-methoxybenzyl)-5,6-difluoro-1H-benzimidazol-2-yl)-4-fluoro-3-piperidinamine], 351 nM; in that of `N[C@@H]1CN(c2nc3cc(F)c(F)cc3n2Cc2ccc(F)cc2F)CC[C@H]1F` [Example 351, (3R,4R)-1-(1-(2,4-difluorobenzyl)-5,6-difluoro-1H-benzimidazol-2-yl)-4-fluoro-3-piperidinamine], 10.3 nM. As to `N[C@@H]1CN(c2nc3cc(F)c(F)cc3n2Cc2ccccc2C(F)(F)F)CC[C@H]1F` [Example 352, (3R,4R)-1-(5,6-difluoro-1-(2-(trifluoromethyl)benzyl)-1H-benzimidazol-2-yl)-4-fluoro-3-piperidinamine], the IC50 came to 328 nM. Consider `N#Cc1ccccc1Cn1c(N2CC[C@@H](F)[C@H](N)C2)nc2cc(F)c(F)cc21` [Example 353, 2-((2-((3R,4R)-3-amino-4-fluoro-1-piperidinyl)-5,6-difluoro-1H-benzimidazol-1-yl)methyl)benzonitrile], for which the IC50 came out at 30.8 nM. For `N[C@@H]1CN(c2nc3cc(F)c(F)cc3n2Cc2ccccc2Cl)CC[C@H]1F` [Example 354, (3R,4R)-1-(1-(2-chlorobenzyl)-5,6-difluoro-1H-benzimidazol-2-yl)-4-fluoro-3-piperidinamine], the IC50 amounted to 133 nM.
